Test results: article PMC7367925, “The EU-ToxRisk method documentation, data processing and chemical testing pipeline for the regulatory use of new approach methods” (Archives of Toxicology, 2020)

Columns and labels:
[1] = test system: AP1 pathway activation / cell cycle control; test: AP-1 CALUX; format: cell-based, human; details: 24 h exposure, lowest effect level PC10, means from 3 assay runs
Description: (§1) After 24 h, exposure medium was prepared. […] All samples were tested in triplicates. […] Fig. SM_4. […] Fig. SM_4.
(§2) Supplementary Material SM_4
(§3) Overview of CALUX assays.
(§4) This is defined as the concentration of test compound […]
(§5) for an antagonist assay is a PC20.
(§6) PC = positive control. FI = fold induction. PC10: concentration where test compound causes an activation equal to 10% of the maximum effect (positive control). PC20: concentration where test compound causes […]
(§7) FI=1.5: concentration where test
(§8) (A) exemplary graph of concentration- […]
(§9) receptor antagonism assay with PC20 as lowest-effect-level. (C) exemplary graph for assay with 1.5 fold inductionas lowest effect level. 9

Nrf2 (Oxidative stress) = test: Nrf2 CALUX; format: cell-based, human; details: 24 h exposure, lowest effect level FI=1.5, means from 3 assay runs
Description: as §1, §2, §3, §4, §5, §6, §7, §8, §9

[2] = test system: p53-dependent pathway activation / genotoxicity; format: cell-based, human; details: 24 h exposure, lowest effect level FI=1.5, means from 3 assay runs
Description: as §1, §2, §3, §4, §5, §6, §7, §8, §9

[3] = set-up: method as in Sommar et al. 2000; details: KAW < 0.03 considered non-volatile; ref Sommar et al. 2000; cited from earlier work
U-2 OS cells = test: Cytotox CALUX; details: 24 h exposure, lowest effect level PC20, means from 3 assay runs
[4] = test system: U-2 OS reporter cell lines battery; test: CALUX reporter gene assay battery as a whole; details: all CALUX assays, 13 concentrations, 24 h exposure
PPARα = target: T1, PPARα (Homo sapiens, UniProt Q07869); test: PPARa CALUX; format: cell-based; details: 24 h exposure, lowest effect level PC10, means from 3 assay runs
T1 construct: host or cells: U-2 OS
T1 sequence (Q07869 1-468): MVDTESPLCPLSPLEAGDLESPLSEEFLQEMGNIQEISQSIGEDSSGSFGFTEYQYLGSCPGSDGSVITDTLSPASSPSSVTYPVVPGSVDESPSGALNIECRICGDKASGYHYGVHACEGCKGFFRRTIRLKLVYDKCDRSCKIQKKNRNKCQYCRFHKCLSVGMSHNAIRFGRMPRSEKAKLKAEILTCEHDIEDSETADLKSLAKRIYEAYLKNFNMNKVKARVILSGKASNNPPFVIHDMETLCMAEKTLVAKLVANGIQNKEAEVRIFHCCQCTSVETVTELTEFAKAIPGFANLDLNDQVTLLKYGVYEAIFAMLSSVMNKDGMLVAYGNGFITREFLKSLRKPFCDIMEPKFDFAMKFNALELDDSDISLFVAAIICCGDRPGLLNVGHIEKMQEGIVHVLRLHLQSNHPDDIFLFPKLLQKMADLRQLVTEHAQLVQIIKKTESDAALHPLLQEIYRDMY
Description: as §1
(§10) Cell line Endpoint effect Reference compound […]
PPARa CALUX Peroxisomeproliferator activated receptor agonists PC10 GW7647 […]
as §2, §3, §4, §5, §6, §7, §8, §9

PPARδ = target: T2, PPARδ (Homo sapiens, UniProt Q03181); test: PPARd CALUX; format: cell-based; details: 24 h exposure, lowest effect level PC10, means from 3 assay runs
T2 construct: host or cells: U-2 OS
T2 sequence (Q03181 1-441): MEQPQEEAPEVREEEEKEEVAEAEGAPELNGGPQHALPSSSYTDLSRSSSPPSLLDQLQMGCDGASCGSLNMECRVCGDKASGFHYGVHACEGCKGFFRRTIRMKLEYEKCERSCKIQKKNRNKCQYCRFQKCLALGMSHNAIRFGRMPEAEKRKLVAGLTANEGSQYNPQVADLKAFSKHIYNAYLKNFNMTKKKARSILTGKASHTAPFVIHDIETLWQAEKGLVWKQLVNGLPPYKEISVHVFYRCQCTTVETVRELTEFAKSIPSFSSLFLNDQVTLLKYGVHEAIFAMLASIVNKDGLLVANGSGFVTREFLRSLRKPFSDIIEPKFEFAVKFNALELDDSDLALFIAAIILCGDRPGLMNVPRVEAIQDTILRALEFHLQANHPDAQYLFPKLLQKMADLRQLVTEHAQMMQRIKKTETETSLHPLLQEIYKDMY

PPARγ = target: T3, PPARγ (Homo sapiens, UniProt P37231); test: PPARg2 CALUX; format: cell-based; details: 24 h exposure, lowest effect level PC10, means from 3 assay runs
T3 construct: host or cells: U-2 OS
T3 sequence (P37231 1-505): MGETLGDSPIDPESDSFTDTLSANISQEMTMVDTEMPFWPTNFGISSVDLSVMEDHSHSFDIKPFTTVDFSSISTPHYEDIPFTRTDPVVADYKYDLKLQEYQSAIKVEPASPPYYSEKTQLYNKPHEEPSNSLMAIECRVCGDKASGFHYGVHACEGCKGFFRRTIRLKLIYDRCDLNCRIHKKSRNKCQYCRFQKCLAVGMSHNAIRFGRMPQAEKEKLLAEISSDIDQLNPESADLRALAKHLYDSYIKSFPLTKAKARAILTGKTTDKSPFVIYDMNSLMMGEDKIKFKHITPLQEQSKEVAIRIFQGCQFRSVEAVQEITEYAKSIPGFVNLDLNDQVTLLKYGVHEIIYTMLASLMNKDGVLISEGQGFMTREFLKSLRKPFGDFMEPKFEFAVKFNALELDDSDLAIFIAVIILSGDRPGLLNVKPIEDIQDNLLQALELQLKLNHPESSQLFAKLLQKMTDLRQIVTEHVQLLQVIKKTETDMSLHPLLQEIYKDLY
Description: as §1, §10, §2, §3, §4, §5, §6, §7, §8, §9

Structure (SMILES) | PoD AP1 [1] | PoD Nrf2 (Nrf2 (Oxidative stress)) | PoD p53 [2] | air-water partition coefficient KAW [3] | PoD cytotoxicity (U-2 OS cells) | response profile over the CALUX battery (in words) [4] | PoD PPARα - ago (PPARα) | PoD PPARδ - ago (PPARδ) | PoD PPARγ - ago (PPARγ)
[Cl][Hg][Cl] [Mercury chloride] | 5.8 -log(M) | 5.5 -log(M) | 5.7 -log(M) | 0.02 | 4.7 -log(M) | only activated stress pathway related assays | – | – | –
CC(C)Cc1ccc(C(C)C(=O)O)cc1 (centres unmarked) [Ibuprofen] | – | – | 3.0 -log(M) | – | – | activated all three isoforms of the peroxisome proliferator activated receptor | 4.3 -log(M) | 4.0 -log(M) | 4.0 -log(M)
